This is an account of results in patent US20260091008A1, “DOUBLE TARGETED CONSTRUCTS TO AFFECT TUMOR KILL” (Cornell University, priority 2016, published 2026).

Several values for one entry are separate records, joined by “and”; a condition that tells them apart may be missing. Identical values can stand only once.

The target in one series is HSA (Homo sapiens, UniProt P02768). The series can be described thus: HSA affinity determination on immobilized-HSA microcolumns. In kind it is binding. The conditions noted are these: HSA microcolumn, phosphate buffer pH 7.4, room temperature. An excerpt: HSA affinity determination. HSA was immobilized to HPLC-grade silica by the Schiff base method as described previously and were packed into 10 mm×2.1 mm i.d. microcolumns. See Chen J, Hage D S. Quantitative studies of allosteric effects by biointeraction chromatography: analysis of protein binding for low-solubility drugs. Anal Chem. 2006:78:2672-2683 and Matsuda R, Anguizola J, Hoy K S, Hage D S. Analysis of drug-protein interactions by high-performance affinity chromatography: interactions of sulfonyl urea drugs with normal and glycated human serum albumin. Methods Mol Biol. 2015; 1286:255-277, each of which is incorporated herein by reference. The protein content of these columns was approximately 60 mg HSA per gram of silica. See Zheng X, Podariu M, Bi C, Hage D S. Development of enhanced capacity affinity microcolumn by using a hybrid of protein cross-linking/modification and immobilization. J. Chromatogr A. 2015; 1400:82-90, incorporated herein by reference. Control microcolumns were prepared in the same manner but with no HSA being added during the immobilization step. The retention factor for each compound was measured on both an HSA microcolumn and a control column by injecting 5 μL samples that contained approximately 50 μM of the compound in 0.067M potassium phosphate buffer (pH 7.4). All samples were injected in triplicate at room temperature and at 1.0 mL/min, with the phosphate buffer used as the mobile phase. Similar injections were made with samples containing sodium nitrate, which was used as a void volume marker. Elution of the injected compounds was monitored by absorbance detection. The dissociation constant (Kd) for each compound with HSA estimated by using the measured retention factors, after correcting for any observed retention on the control column, along with the estimated content of active HSA in the column, as based on injections made with warfarin and L-tryptophan (i.e., probes for Sudlow sites I and II of HSA). See Chen J, Hage D S. Anal Chem. 2006:78:2672-2683 (cited above) and Joseph K S, Hage D S. The effects of glycation on the binding of human serum albumin to warfarin and L-tryptophan. J Pharm Biomed Anal. 2010; 53:811-818, incorporated herein by reference.

A further series concerns the target T1, PSMA on LNCaP cells (Homo sapiens, UniProt Q04609).
T1 construct: host or cells: LNCaP
The series can be described thus: Multi-concentration competitive binding assay against 99mTc-MIP-1427 on LNCaP cells. The settings on record: non-radioactive ligands vs 1 nM 99mTc-MIP-1427, LNCaP cells, 1 h. The method, then:
Cell Culture. […] Cell culture supplies were from Invitrogen unless otherwise noted.
In vitro determination of IC50. […] Eur J Nucl Med Mol Imaging. 2017; 44, 647-661, incorporated herein by reference. […] The cells were incubated for 1 h with 1 nM ^99mTc-MIP-1427 in serum-free RPMI-1640 medium in the presence of 0.1-10,000 nM test compounds. […] Cells were harvested from the plates and transferred to tubes for radioactive counting using a Packard Cobra II Gamma Counter. IC50 values were determined by non-linear regression using GraphPad Prism software.

For the next series, the system named is LNCaP cell xenografts. The series can be described thus: Tissue distribution of 131I-labeled compounds in mice bearing LNCaP xenografts. The settings on record: male, NCr-nu/nu, mouse, in vivo. The method, then: Inoculation of mice with xenografts. All animal studies were approved by the Institutional Animal Care and Use Committee of Weill Cornell Medicine and were undertaken in accordance with the guidelines set forth by the USPHS Policy on Humane Care and Use of Laboratory Animals. Animals were housed under standard conditions in approved facilities with 12 h light/dark cycles. Food and water was provided ad libitum throughout the course of the studies. Male inbred athymic nu/nu mice were purchased from The Jackson Laboratory. For inoculation in mice, LNCaP cells were suspended at 4×10^7 cells/mL in a 1:1 mixture of PBS:Matrigel (BD Biosciences). Each mouse was injected in the left flank with 0.25 mL of the cell suspension. The mice were imaged when the tumors reached approximately 200-400 mm^3, while biodistributions were conducted when tumors were in the range 100-400 mm^3.
Tissue Distribution Studies. A quantitative analysis of the tissue distribution of ^131I-labeled compounds was performed in separate groups of male NCr-nu/nu mice bearing LNCaP cell xenografts administered via the tail vein as a bolus injection (approximately 370 kBq (10 μCi)/mouse) in a volume of 0.05-0.1 mL of saline solution containing 2.5% v/v DMSO. The animals (n=3-5/time point) were euthanized by asphyxiation with CO2 at the indicated time points after injection. Tissues, including blood, heart, lungs, liver, spleen, pancreas, kidneys, stomach, large and small intestines (with contents), skeletal muscle, bone, and tumor, were dissected, excised, weighed wet (Sartorius analytical balance), and counted in a Wizard automated […] (Perkin Elmer). A 1% ID/g standard was counted with the tissue samples. Tissue time-radioactivity levels expressed as percent injected dose per gram of tissue (% ID/g) were determined. Blood pharmacokinetics were modeled as a dual compartment system using bi-exponential least-squares regression fit to the data. Regression method was implemented in MATLAB R2015b (MathWorks, Natick, MA).

The conditions of series [1]: salivary glands, radioligand therapy; cited from earlier work.
For series [2] the following is noted: in vivo; cited from earlier work.

T1 sequence (Q04609 whole entry): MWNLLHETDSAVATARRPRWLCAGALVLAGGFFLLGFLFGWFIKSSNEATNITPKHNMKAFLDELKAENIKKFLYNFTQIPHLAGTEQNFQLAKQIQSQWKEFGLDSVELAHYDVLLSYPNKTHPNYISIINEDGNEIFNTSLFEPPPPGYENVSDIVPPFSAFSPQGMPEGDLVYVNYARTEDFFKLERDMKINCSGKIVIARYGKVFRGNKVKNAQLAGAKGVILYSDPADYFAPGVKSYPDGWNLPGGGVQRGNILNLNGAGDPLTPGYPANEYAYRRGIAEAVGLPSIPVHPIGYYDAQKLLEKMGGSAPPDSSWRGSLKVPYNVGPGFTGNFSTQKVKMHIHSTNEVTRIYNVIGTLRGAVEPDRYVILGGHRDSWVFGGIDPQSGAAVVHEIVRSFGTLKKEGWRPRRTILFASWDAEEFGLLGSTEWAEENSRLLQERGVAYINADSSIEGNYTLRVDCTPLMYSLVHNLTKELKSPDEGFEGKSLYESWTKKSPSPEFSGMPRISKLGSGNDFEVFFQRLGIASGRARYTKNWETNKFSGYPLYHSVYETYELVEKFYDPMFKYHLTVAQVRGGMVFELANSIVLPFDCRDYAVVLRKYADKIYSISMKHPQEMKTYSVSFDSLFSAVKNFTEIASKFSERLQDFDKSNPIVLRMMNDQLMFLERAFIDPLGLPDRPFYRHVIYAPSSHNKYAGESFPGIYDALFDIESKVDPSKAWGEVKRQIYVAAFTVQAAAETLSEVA
Sequence of HSA (P02768 25-609): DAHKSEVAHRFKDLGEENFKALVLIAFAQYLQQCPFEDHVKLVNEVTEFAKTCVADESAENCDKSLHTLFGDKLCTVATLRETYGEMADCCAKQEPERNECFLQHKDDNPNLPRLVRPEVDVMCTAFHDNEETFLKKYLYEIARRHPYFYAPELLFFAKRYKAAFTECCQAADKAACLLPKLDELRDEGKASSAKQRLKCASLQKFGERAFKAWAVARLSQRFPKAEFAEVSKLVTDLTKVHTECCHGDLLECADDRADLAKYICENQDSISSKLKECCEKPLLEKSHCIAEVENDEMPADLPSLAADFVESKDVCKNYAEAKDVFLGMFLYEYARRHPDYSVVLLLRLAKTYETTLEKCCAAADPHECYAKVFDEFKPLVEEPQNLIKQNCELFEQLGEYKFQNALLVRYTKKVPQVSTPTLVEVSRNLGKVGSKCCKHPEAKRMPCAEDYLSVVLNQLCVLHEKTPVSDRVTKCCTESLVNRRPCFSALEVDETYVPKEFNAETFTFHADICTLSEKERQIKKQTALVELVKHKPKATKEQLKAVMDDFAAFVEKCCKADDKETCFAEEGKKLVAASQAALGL

A word on the Kd: it is the free concentration of one partner at which half of the binding sites on the other are occupied at equilibrium, for simple one-to-one binding. A low value points to higher affinity. `O=C(O)CC[C@H](NC(=O)N[C@@H](CCCCNC(=O)Nc1ccc(I)cc1)C(=O)O)C(=O)O` [RPS-001, reference compound] registered an equilibrium dissociation constant (Kd) on HSA of 19.2 µM.

One may read the IC50 as the concentration that inhibits the measured activity by half. Consider `O=C(O)CC[C@H](NC(=O)N[C@@H](CCCCNC(=O)CCCc1ccc(I)cc1)C(=O)O)C(=O)O` [RPS-005, (((S)-1-Carboxy-5-(4-(4-iodophenyl)butanamido)pentyl)carbamoyl)-L-glutamic acid], for which, on PSMA on LNCaP cells, the half-maximal inhibitory concentration (IC50) stood at 4 nM. The molecule also returned a Kd at HSA of 0.98 µM.

Turning to `O=C(O)CC[C@H](NC(=O)N[C@@H](CCC(=O)N[C@@H](CCCCNC(=O)CCCc1ccc(I)cc1)C(=O)O)C(=O)O)C(=O)O` [RPS-025, (3S,7S,12S)-21-(4-iodophenyl)-5,10,18-trioxo-4,6,11,17-tetraazahenicosane-1,3,7,12-tetracarboxylic acid], the IC50 at PSMA on LNCaP cells was determined as 15 nM. In addition, on HSA, the Kd is less than 1 µM and the “Kd for HSA” value is on record as “could not be eluted from the column”.

In the case of `O=C(O)CC[C@H](NC(=O)N[C@@H](CCCCNC(=O)CCc1ccc(I)cc1)C(=O)O)C(=O)O` [RPS-026, (((S)-1-Carboxy-5-(3-(4-iodophenyl)propanamido)pentyl)carbamoyl)-L-glutamic acid], the IC50 at PSMA on LNCaP cells stood at 40 nM. This molecule showed a Kd at HSA of 26.6 µM.

Regarding `O=C(O)CC[C@H](NC(=O)N[C@@H](CCCCNC(=O)Cc1ccc(I)cc1)C(=O)O)C(=O)O` [RPS-027, (((S)-1-Carboxy-5-(2-(4-iodophenyl)acetamido)pentyl)carbamoyl)-L-glutamic acid], the IC50 at PSMA on LNCaP cells was found to be 15 nM. The Kd at HSA was 11 µM and 11.2 µM.

Consider `O=C(O)CCC(NC(=O)N[C@@H](CCCCNC(=O)Nc1ccc([131I])cc1)C(=O)O)C(=O)O` (some centres unmarked) [^131I-RPS-001], for which, in the series on LNCaP cell xenografts, the “Blood t1/2 for the distribution phase” value was 2.17 h, the “Blood t1/2 for the elimination phase” value stood at 20.38 h, the Initial kidney uptake is on record as more than 100 % ID/g and the “Time post injection at which T/K ratio reaches 3” value is approximately 96 h. Moreover, in the series with LNCaP cell xenografts (24 h), the Kidney uptake came out at 65.24±22.61 % ID/g, the Large intestine uptake is 2.35±1.26 % ID/g, the Spleen uptake is listed as 2.41±1.40 % ID/g and the Tumor uptake amounted to 19.81±6.16 % ID/g. In the series on LNCaP cell xenografts (96 h), this molecule showed a Kidney uptake of 2.12±2.47 % ID/g and a Tumor uptake of 10.21±4.30 % ID/g. Further, the “Toxicity reported in patients” value in series [1] is “dose-limiting toxicity to the salivary glands”.

At HSA, `O=C(O)CCC(NC(=O)NC(CCCCNC(=O)CCCc1ccc([131I])cc1)C(=O)O)C(=O)O` (centres unmarked) [^131I-RPS-005] showed a Kd of 0.89 µM. In the series with LNCaP cell xenografts (24 h), this molecule had a Blood activity of 21.35±3.99 % ID/g, a Heart uptake of 4.40±0.74 % ID/g, a Kidney uptake of 39.09±2.96 % ID/g and a Liver uptake of 3.41±0.56 % ID/g. In the series with LNCaP cell xenografts (24 h), this molecule returned a Lungs uptake of 8.87±0.74 % ID/g and a Tumor uptake of 9.37±1.56 % ID/g. In the series with LNCaP cell xenografts (96 h), this molecule returned a Blood activity of 15.57±3.98 % ID/g and a Tumor uptake of 10.82±2.64 % ID/g.

Turning to `O=C(O)CC[C@H](NC(=O)NC(CCCCNC(=O)c1ccc([211At])cc1)C(=O)O)C(=O)O` (stereo partly drawn) [^211At-6, (2S)-2-(3-(1-carboxy-5-(4-^211At-astatobenzamido)pentyl)ureido)-pentanedioic acid], the Nephrotoxicity result in series [2] is given as “dose-limiting, irreversible nephrotoxicity”.

With `O=C([O-])CC[C@H](NC(=O)N[C@@H](CCCCNC(=O)[C@H](Cc1ccc2ccccc2c1)NC(=O)[C@H]1CC[C@H](CNC(=O)CN2CCN(CC(=O)[O-])CCN(CC(=O)[O-])CCN(CC(=O)[O-])CC2)CC1)C(=O)[O-])C(=O)[O-].[225Ac].[H+].[H+].[H+]` [^225Ac-PSMA-617], the “Toxicity reported in patients” value in series [1] was “severe and sustained xerostomia”.

Consider “(((S)-1-Carboxy-4-(2-(4-iodophenyl)acetamido)pentyl)carbamoyl)-L-glutamic acid [RPS-023]”, for which the IC50 on PSMA on LNCaP cells came to 10 nM. The molecule also yielded an equilibrium dissociation constant (Kd) on HSA of 53.2 µM.

Turning to “(((S)-1-Carboxy-4-(3-(4-iodophenyl)propanamido)pentyl)carbamoyl)-L-glutamic acid [RPS-022]”, the half-maximal inhibitory concentration (IC50) at PSMA on LNCaP cells came to 10 nM. At HSA, this molecule displayed a Kd of 22.9 µM.

In the case of “(((S)-1-Carboxy-4-(4-(4-iodophenyl)butanamido)pentyl)carbamoyl)-L-glutamic acid [RPS-020]”, the 50% inhibitory concentration (IC50) on PSMA on LNCaP cells came to 8 nM. Further, the Kd on HSA was 2.1 µM.
